Data reported in US20210198277A1, “AMINE-SUBSTITUTED ARYL OR HETEROARYL COMPOUNDS” (Epizyme, Inc., priority 2016, published 2021).

Each molecule was assayed against T1, EHMT2 (Homo sapiens, UniProt Q96KQ7) (assay: MDA-MB-231 H3K9me2 in-cell Western assay (EHMT2 ICW)). Conditions: Table VII; read-out: EHMT2 ICW IC50.
T1 construct: host or cells: MDA-MB-231
T1 sequence (Q96KQ7 1-1210): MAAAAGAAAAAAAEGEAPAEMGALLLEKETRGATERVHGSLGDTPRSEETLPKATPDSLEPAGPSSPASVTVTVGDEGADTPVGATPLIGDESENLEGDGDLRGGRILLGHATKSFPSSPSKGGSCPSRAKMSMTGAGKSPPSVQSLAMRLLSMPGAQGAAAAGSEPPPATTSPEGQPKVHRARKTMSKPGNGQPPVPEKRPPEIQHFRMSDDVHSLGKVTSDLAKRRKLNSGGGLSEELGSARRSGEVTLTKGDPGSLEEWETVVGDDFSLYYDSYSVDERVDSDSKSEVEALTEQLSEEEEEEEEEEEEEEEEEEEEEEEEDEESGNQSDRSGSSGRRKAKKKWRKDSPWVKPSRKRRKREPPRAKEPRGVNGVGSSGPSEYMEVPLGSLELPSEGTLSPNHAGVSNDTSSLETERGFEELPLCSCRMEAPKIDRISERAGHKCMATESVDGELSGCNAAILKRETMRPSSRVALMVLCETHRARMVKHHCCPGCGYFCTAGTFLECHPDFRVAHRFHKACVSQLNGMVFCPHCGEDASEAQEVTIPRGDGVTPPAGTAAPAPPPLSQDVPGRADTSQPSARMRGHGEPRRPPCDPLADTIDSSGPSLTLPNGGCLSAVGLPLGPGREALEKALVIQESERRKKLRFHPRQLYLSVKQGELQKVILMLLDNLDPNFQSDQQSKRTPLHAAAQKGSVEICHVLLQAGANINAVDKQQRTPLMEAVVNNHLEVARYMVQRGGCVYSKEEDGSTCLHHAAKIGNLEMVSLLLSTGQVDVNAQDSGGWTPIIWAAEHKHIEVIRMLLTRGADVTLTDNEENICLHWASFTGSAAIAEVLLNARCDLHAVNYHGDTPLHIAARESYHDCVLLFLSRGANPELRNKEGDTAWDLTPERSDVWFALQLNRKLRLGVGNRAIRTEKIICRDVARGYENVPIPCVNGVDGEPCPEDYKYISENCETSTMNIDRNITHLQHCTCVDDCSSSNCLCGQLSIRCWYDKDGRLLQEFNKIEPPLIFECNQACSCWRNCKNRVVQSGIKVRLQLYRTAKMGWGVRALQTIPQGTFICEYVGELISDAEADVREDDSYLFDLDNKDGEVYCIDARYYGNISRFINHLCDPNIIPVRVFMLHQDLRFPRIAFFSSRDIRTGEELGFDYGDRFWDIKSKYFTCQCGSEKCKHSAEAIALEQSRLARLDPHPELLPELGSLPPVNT
Type: cell-based
Method in brief: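 MDA-MB-231 cells (3,000/well) seeded onto compound, kept 30 min at room temperature, then 48 h at 37 °C, 5% CO2. IC50 from triplicate wells, four-parameter fit.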

IC50 [nM] | SMILES
100 to 1000 | CNc1cc(C)nc(Nc2ccc(OC)c(CNCCN3CC[C@@H](F)C3)c2)n1 [Compound 1094]
1000 to 10000 | CNCCNC(C)c1cc(Nc2nc(C)cc(NC)n2)ccc1OC (centres unmarked) [Compound 1095]
> 10000 | CCN1CCC(O)(COc2cc(Nc3nccc(NC)n3)ccc2OC)C1 (centres unmarked) [Compound 1096]
> 10000 | CNc1ccnc(Nc2ccc(OC)c(OCC3(O)CCN(C)C3)c2)n1 (centres unmarked) [Compound 1097]
100 to 1000 | CNc1ccnc(Nc2cnc(OC)c(OC[C@@H]3CCN(C4CCC4)C3)c2)n1 [Compound 1098]
100 to 1000 | CNc1cc(C)nc(Nc2ccc(OC)c(OC[C@H](O)CN3CC(C)C3)c2)n1 [Compound 1099]
1000 to 10000 | CNc1cc(C)nc(Nc2ccc(OC)c(OC[C@H](O)CN3CC(C)C3)c2)n1 [Compound 1100]
100 to 1000 | CNc1cc(C)nc(Nc2ccc(OC)c(CNCCN(C)C)c2)n1 [Compound 1101]
100 to 1000 | CNC[C@H](C)NCc1cc(Nc2nc(C)cc(NC)n2)ccc1OC [Compound 1102]
1000 to 10000 | CNC[C@@H](C)NCc1cc(Nc2nc(C)cc(NC)n2)ccc1OC [Compound 1103]
100 to 1000 | CNc1cc(C)nc(Nc2ccc(OC)c(COCCN3CCCC3)c2)n1 [Compound 1104]
1000 to 10000 | CNc1cc(C)nc(Nc2ccc(OC)c(COCCN(C)C)c2)n1 [Compound 1105]
100 to 1000 | CCNc1cc(C)nc(Nc2ccc(OC)c(OC[C@H](O)CN3CCCC3)c2)n1 [Compound 1106]
100 to 1000 | CNc1cc(C2CCOCC2)c2cc(OC)c(OC[C@H](O)CN3CCCC3)cc2n1 [Compound 1107]
